Results taken from patent US8653083B2, “Hedgehog pathway antagonists to treat disease” (The Johns Hopkins University, priority 2005, dated 2014).
Structures can show the parent of a compound that is named as a salt. Where two headings read alike, the source gives them in different places.

What was measured:
[1] = test system: Sonic hedgehog (Shh) signaling; experiment: Cultured cell based Sonic hedgehog (Shh) signaling assay, luciferase reporter
Protocol: A library of drugs was previously tested in humans for agents that antagonize Hedgehog signaling. […] The assays used for the screen for Hh pathway antagonists proceeded essentially as described in reference 5. Briefly, each candidate compound was added at 10 uM to a cultured cell based Sonic hedgehog (Shh) signaling assay in high through-put format. This assay utilized cells with a stably integrated firefly luciferase reporter that is responsive to ShhN signaling. These cells also contain a stably integrated, constitutively expressed Renila luciferase gene that can be used for normalization of response to Shh, and used also to monitor cell health.

22RV1 xenografts = experiment: 22RV1 human prostate cancer xenografts in athymic mice, tumor growth; format: in vivo; settings: itraconazole 37.5 mg/kg
AT6.3 metastasis model = experiment: AT6.3 Dunning prostate cancer metastasis model, survival; format: in vivo, mice; settings: cyclopamine comparator, dose not given
[2] = Hh pathway inhibition, cells with ShhN-responsive firefly luciferase reporter, normalized to Renila luciferase, titration of 10 uM hits, read-out: IC50

Row | Compound | IC50 [1, 2] [µM] | also measured
1 | CCC(C)n1ncn(-c2ccc(N3CCN(c4ccc(OCC5COC(Cn6cncn6)(c6ccc(Cl)cc6Cl)O5)cc4)CC3)cc2)c1=O (racemic) [Itraconazole, (±)-cis-4-[4-[4-[4-[[2-(2,4-dichlorophenyl)-2-(1H-1,2,4-triazol-1-yl-methyl)-1,3-dioxolan-4-yl)methoxy]phenyl]-1-piperazinyl]phenyl]-2,4-dihydro-2-(1-methylpropyl)-3H-1,2,4-triazol-3-one] | 0.3 | tumor volume change (22RV1 xenografts): −100 % volume
2 | Nc1ncn([C@@H]2O[C@H](CO)[C@@H](O)[C@H]2O)c(=O)n1 [5-AZACYTIDINE] | 1 to 3 | 
3 | CN(C)CCC=C1c2ccccc2CCc2ccccc21 [Amitriptyline] | 1 to 3 | 
4 | COc1ccc(C[C@H]2NC[C@H](O)[C@H]2OC(C)=O)cc1 [Anisomycin] | < 0.1 | 
5 | COc1cc2c(c(OC)c1OC)-c1ccc(=O)c(O)cc1[C@@H](NC(C)=O)CC2 [COLCHICEINE] |  | IC50 [1]: 0.3 to 1 µM
6 | C=C1C(=O)O[C@H]2C[C@@H]1C(OC(C)=O)C/C(C)=C/CC/C(C)=C/CC[C@@]2(C)O (some centres unmarked) [CRASSIN ACETATE] | 1 to 3 | 
7 | Cc1ccc2c(Cl)cc(Cl)c(O)c2n1 [Chlorquinaldol, 5,7-Dichloro-2-methyl-8-quinolinol] | 3 | 
8 | CN1CCN(C2=Nc3ccccc3Sc3ccc(Cl)cc32)CC1 [Clothiapine] | 1 to 3 | 
9 | C[C@@H]1C[C@@H]([C@H](O)CC2CC(=O)NC(=O)C2)C(=O)[C@@H](C)C1 [Cycloheximide] |  | IC50 [1]: 0.3 to 1 µM
10 | CC1=C2C[C@H]3[C@@H](CC=C4C[C@@H](O)CC[C@@]43C)[C@@H]2CC[C@]12O[C@@H]1C[C@H](C)CN[C@H]1[C@H]2C [Cyclopamine] |  | IC50 [1]: 0.3 to 1 µM; survival (AT6.3 metastasis model): extending survival
11 | C[C@H]1[C@@H](O)O[C@@H]2O[C@@]3(C)CC[C@H]4[C@H](C)CC[C@@H]1[C@@]24OO3 [DIHYDROARTEMISIMIN] | 1 to 3 | 
12 | CCOC(=O)NC1=C(N2CC2)C(=O)C(NC(=O)OCC)=C(N2CC2)C1=O [Diaziquone] | 0.3 to 1 | 
13 | CC(=O)Oc1ccc2c(c1)CC[C@@H]1[C@@H]2CC[C@]2(C)[C@@H](O)CC[C@@H]12 [ESTRADIOL ACETATE] | 1 to 3 | 
14 | CC12CCC(CC1)C(C)(C)O2 [Eucalyptol] | 0.3 to 1 | 
15 | OCCOCCN1CCN(C(c2ccccc2)c2ccc(Cl)cc2)CC1 (centres unmarked) [Hydroxyzine] | 0.3 to 1 | 
16 | CN(C)CCCN1c2ccccc2CCc2ccccc21 [Imipramine] | 1 to 3 | 
17 | CN1CCN(C2=Nc3ccccc3Oc3ccc(Cl)cc32)CC1 [LOXAPINE SUCCINATE] | 0.1 to 0.3 | 

Row | Compound | IC50 [1, 2] [µM] | also measured
18 | CC[C@H]1/C=C/C=C/C[C@@H](C)[C@H](O)[C@@](C)(O)C(=O)[C@@H](C)[C@H](O)[C@@H](C)C(=O)[C@@H](C)[C@H](O)[C@@H](C)/C=C/C(=O)O[C@@H]2[C@H](C)[C@H](CC1)O[C@]1(CC[C@H](C)[C@H](C[C@@H](C)O)O1)[C@H]2C [OLIGOMYCIN] | < 0.1 | 
19 | CC(COc1ccccc1)N(CCCl)Cc1ccccc1 (centres unmarked) [PHENOXYBENZAMINE HYDROCHLORIDE] | 1 to 3 | 
20 | CN1CCC(=C2c3ccccc3Sc3ccccc32)CC1 [PIMETHIXENE MALEATE] | 0.3 to 1 | 
21 | CN(C)CCCN1c2ccccc2Sc2ccccc21 [PROMAZINE HYDROCHLORIDE] | 1 to 3 | 
22 | CC(CN1c2ccccc2Sc2ccccc21)N(C)C (centres unmarked) [PROMETHAZINE HYDROCHLORIDE] | 0.3 to 1 | 
23 | C=C(C)[C@H]1Cc2c(ccc3c2O[C@@H]2COc4cc(OC)c(OC)cc4[C@@H]2C3=O)O1 [ROTENONE] |  | IC50 [1]: 1 to 3 µM
24 | O=C(c1ccc(OCCN2CCCCC2)cc1)c1c(-c2ccc(O)cc2)sc2cc(O)ccc12 [Raloxifene hydrochloride] | 1 to 3 | 
25 | CC[C@@H](C(=O)[C@@H](C)[C@@H](O)[C@H](C)[C@@H]1O[C@@H]([C@@H](CC)C(=O)O)CC[C@@H]1C)[C@H]1O[C@]2(C=C[C@@H](O)[C@]3(CC[C@@](C)([C@H]4CC[C@](O)(CC)[C@H](C)O4)O3)O2)[C@H](C)C[C@@H]1C [SALINOMYCIN, SODIUM] | < 0.1 | 
26 | Nc1ccc(S(=O)(=O)Nc2cnc3ccccc3n2)cc1 [SULFAQUINOXALINE SODIUM] | 0.3 to 1 | 
27 | Cc1cc(NS(=O)(=O)c2ccc(N)cc2)nc(C)n1 [Sulfisomidine] | 0.3 to 1 | 
28 | CC(CN(C)C)CN1c2ccccc2CCc2ccccc21 (centres unmarked) [TRIMIPRAMINE MALEATE] | 1 to 3 | 
29 | CC[C@]1(O)C[C@@H]2CN(CCc3c([nH]c4ccccc34)[C@@](C(=O)OC)(c3cc4c(cc3OC)N(C)[C@H]3[C@@](O)(C(=O)OC)[C@H](OC(C)=O)[C@]5(CC)C=CCN6CC[C@]43[C@@H]65)C2)C1 [Vinblastine sulfate] | 0.3 to 1 | 
30 | CC[C@]1(O)C[C@H]2CN(CCc3c([nH]c4ccccc34)[C@@](C(=O)OC)(c3cc4c(cc3OC)N(C=O)[C@H]3[C@@](O)(C(=O)OC)[C@H](OC(C)=O)[C@]5(CC)C=CCN6CC[C@]43[C@@H]65)C2)C1 [Vincristine sulfate] | < 0.1 | 
31 | CC[C@]1(O)C[C@@H]2CN(CCc3c([nH]c4ccccc34)[C@@](C(=O)OC)(c3cc4c(cc3OC)N(C)[C@H]3[C@@](O)(C(N)=O)[C@H](O)[C@]5(CC)C=CCN6CC[C@]43[C@@H]65)C2)C1 [Vindesine] | < 0.1 | 
32 | CCC1=C[C@@H]2CN(C1)Cc1c([nH]c3ccccc13)[C@@](C(=O)OC)(c1cc3c(cc1OC)N(C)[C@H]1[C@@](O)(C(=O)OC)[C@H](OC(C)=O)[C@]4(CC)C=CCN5CC[C@]31[C@@H]54)C2 [Vinorelbine tartrate] | < 0.1 | 
33 | c1cc(CN2CCCCC2)cc(OCCCNc2nc3ccccc3s2)c1 [Zolantidine] | 1 to 3 | 
